PubChem BioAssay (NCI)
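Exposure lasted 48 hours, with cells grown in 96-well plates and compounds tested at five concentrations. GI50 = concentration required for 50% inhibition of growth. TGI is the concentration that stops growth completely.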

Test system: MDA-MB-468 breast
Assay: inhibition of tumour cell growth, NCI panel, 48 h

Row | Structure (SMILES) | GI50 | TGI
1 | Cc1ccc(N(CSc2ccc(Cl)cc2)CSc2ccc(Cl)cc2)cc1 | 1910 nM | 6.23 µM
2 | CCCCCc1c(C)[nH]c(/C=C2\N=C(c3ccc[nH]3)C=C2CC)c1C | 21.5 nM | 0.0904 µM
3 | CN(C)c1ccc2nc3ccc(=O)cc-3sc2c1 | 1490 nM | 6.99 µM
4 | Cc1cc(NC(=O)c2ccc(C)c(Nc3nccc(-c4cccnc4)n3)c2)cc(-n2cnc(C)c2)c1 | 1220 nM | 3.27 µM
5 | C#CC(=O)Nc1cccc(Nc2nc3c(c(NCc4ccccc4)n2)CCCC3)c1 | 168 nM | 0.573 µM
6 | CC(=O)Oc1ccc(Nc2c3ccccc3nc3ccccc23)cc1 | 913 nM | 3.01 µM
7 | O=C(CCCN1CC=C(n2c(=O)[nH]c3ccccc32)CC1)c1ccc(F)cc1 | 18800 nM | 59.5 µM
8 | Cc1n(Cc2ccc3ccccc3c2)cc[n+]1Cc1ccc2ccccc2c1 | 252 nM | 0.819 µM
9 | Cc1ccc(Nc2nc(N)c(C(=O)c3ccc(C#N)cc3)s2)cc1 | 229 nM | 0.663 µM
10 | Cc1c[n+](Cc2ccc3ccccc3c2)cn1Cc1ccc2ccccc2c1 | 362 nM | 1.35 µM
11 | COc1ccc(CNc2c3ccccc3nc3ccccc23)cc1OC | 1580 nM | 4.14 µM
12 | CCN1C(=O)N(CC)C2C1NC(=S)N2/N=C/C=C/c1cccs1 (configuration not stated) | 198 nM | –
13 | O=C(Nc1ccc(Cl)cc1F)c1cc(Br)ccc1O | 1130 nM | 4.45 µM
14 | N#CC1(C2SCCS2=O)C2=C(C(=O)c3ccccc3C2=O)N2CCCC21 (configuration not stated) | 467 nM | 1.9 µM
15 | Cc1[nH]n(-c2cccc(Cl)c2)c(=O)c1/C=C1\C=Nc2ccc(Br)cc21 | 3970 nM | 29.2 µM
16 | CN1CCc2c(Sc3ccc(C(=O)NO)cc3)c3ccccc3n2C1 | 1120 nM | 2.92 µM
17 | CC(=O)O[C@@H]1C[C@]2(C(C)C)O[C@@]1(C)[C@@H]1CCC(C)=C1[C@@H]2OC(=O)/C=C/c1ccccc1 | 24200 nM | > 100 µM
18 | NC(=O)C(=CNc1nc(-c2ccc(Cl)c(Cl)c2)cs1)C(N)=O | > 100000 nM | > 100 µM
19 | O=c1[nH]c2cc(Cl)ccc2n1C1CCN(CCCC(c2ccc(F)cc2)c2ccc(F)cc2)CC1 | 1650 nM | 3.14 µM
